We go through 25 compounds from patent publication US9862708B2, “Pyrazolone compounds and uses thereof” (Tempest Therapeutics, Inc., priority 2014, dated 2018).

The target in this experiment is T1, human PPARα (Homo sapiens, UniProt Q07869).
T1 construct: host or cells: proprietary non-human mammalian cells
T1 sequence (Q07869 1-468): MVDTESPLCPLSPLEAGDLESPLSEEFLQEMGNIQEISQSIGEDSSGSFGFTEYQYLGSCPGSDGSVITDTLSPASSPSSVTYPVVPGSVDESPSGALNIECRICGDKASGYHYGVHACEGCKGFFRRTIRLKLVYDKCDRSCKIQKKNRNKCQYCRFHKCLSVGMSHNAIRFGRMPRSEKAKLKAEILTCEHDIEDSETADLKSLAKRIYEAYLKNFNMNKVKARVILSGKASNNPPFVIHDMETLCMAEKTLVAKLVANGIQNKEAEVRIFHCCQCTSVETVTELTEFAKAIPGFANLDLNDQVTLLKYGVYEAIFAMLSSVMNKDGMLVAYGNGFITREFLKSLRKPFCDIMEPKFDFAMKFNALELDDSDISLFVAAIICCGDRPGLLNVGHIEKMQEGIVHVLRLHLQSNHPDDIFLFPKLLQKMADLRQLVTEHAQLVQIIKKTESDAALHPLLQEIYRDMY
Nature of the experiment: Human PPARα Reporter Assay (luciferase, Indigo Biosciences). The class given is cell-based. To be noted: antagonism; luciferase reporter cells, overnight incubation; read-out: PPARα IC50. On the procedure: Human PPARα Reporter Assay
The screening of test compounds for agonist or antagonist activities against human PPARα receptors was performed using a commercial kit, Human PPARα Reporter Assay System (Indigo Biosciences, Cat. #IB00111).
This nuclear receptor assay system utilizes proprietary non-human mammalian cells engineered to provide constitutive, high-level expression of Human PPARα. Because these cells incorporate a PPARα-responsive luciferase reporter gene, quantifying expressed luciferase activity provides a sensitive surrogate measure of PPARα activity in the treated cells. The primary application of this reporter assay system is in the screening of test samples to quantify any functional activity, either agonist or antagonist, that they may exert against human PPARα.
Briefly, reporter cells are dispensed into wells of the assay plate and then immediately dosed with test compounds. Following an overnight incubation, the treatment media is discarded and Luciferase Detection Reagent (LDR) is added. The intensity of light emission from the ensuing luciferase reaction provides a sensitive measure that is directly proportional to the relative level of PPARα activation in the reporter cells.
(In general: In a reporter assay the amount or activity of a reporter protein is the signal.)

The structures appear in SMILES notation.

The IC50 is the concentration at which inhibition is half-maximal.

In the case of `CC1(C)C(=O)N(c2ccc(C(F)(F)F)cc2)N=C1CCCc1ccc(OC(C)(C(=O)O)c2ccccc2)cc1` (single isomer, unassigned) [53-enantiomer#1, 2-(4-(3-(4,4-dimethyl-5-oxo-1-(4-(trifluoromethyl)phenyl)-4,5-dihydro-1H-pyrazol-3-yl)propyl)phenoxy)-2-phenylpropanoic acid], the IC50 came out at 820 nM. To `CC1(C)C(=O)N(c2ccc(C(F)(F)F)cc2)N=C1CCCc1ccc(OC(C)(C(=O)O)c2ccccc2)cc1` (single isomer, unassigned) [53-enantiomer#2, 2-(4-(3-(4,4-dimethyl-5-oxo-1-(4-(trifluoromethyl)phenyl)-4,5-dihydro-1H-pyrazol-3-yl)propyl)phenoxy)-2-phenylpropanoic acid] belongs 2.1 nM; to `CC1(C)C(=O)N(c2cccc(C(F)(F)F)c2)N=C1CCCc1ccc(OC(C)(C(=O)O)c2ccccc2)cc1` (single isomer, unassigned) [54-enantiomer#1, 2-(4-(3-(4,4-dimethyl-5-oxo-1-(3-(trifluoromethyl)phenyl)-4,5-dihydro-1H-pyrazol-3-yl)propyl)phenoxy)-2-phenylpropanoic acid], 640 nM.

Turning to `CC1(C)C(=O)N(c2cccc(C(F)(F)F)c2)N=C1CCCc1ccc(OC(C)(C(=O)O)c2ccccc2)cc1` (single isomer, unassigned) [54-enantiomer#2, 2-(4-(3-(4,4-dimethyl-5-oxo-1-(3-(trifluoromethyl)phenyl)-4,5-dihydro-1H-pyrazol-3-yl)propyl)phenoxy)-2-phenylpropanoic acid], the IC50 was found to be 8.9 nM. As to `CC(C)(Oc1ccc(CCCC2=NN(Cc3ccc(C(C)(C)C)cc3)C(=O)C2(C)C)cc1)C(=O)O` [Example 1, 2-(4-(3-(1-(4-(tert-butyl)benzyl)-4,4-dimethyl-5-oxo-4,5-dihydro-1H-pyrazol-3-yl)propyl)phenoxy)-2-methylpropanoic acid], the IC50 was 15 nM. `CC(C)(Oc1ccc(CCCC2=NN(Cc3ccc(C(C)(C)C)cc3)C(=O)C2(C)C)cc1)C(=O)NS(=O)(=O)c1ccccc1` [Example 2, 2-(4-(3-(1-(4-(tert-butyl)benzyl)-4,4-dimethyl-5-oxo-4,5-dihydro-1H-pyrazol-3-yl)propyl)phenoxy)-2-methyl-N-(phenylsulfonyl)propanamide]: the IC50 is 2.1 nM.

For the compound `CC(C)(Oc1ccc(CCCC2=NN(Cc3ccc(C(C)(C)C)cc3)C(=O)C2(C)C)cc1)C(=O)NCc1ccccc1` [Example 3, N-benzyl-2-(4-(3-(1-(4-(tert-butyl)benzyl)-4,4-dimethyl-5-oxo-4,5-dihydro-1H-pyrazol-3-yl)propyl)phenoxy)-2-methylpropanamide], the IC50 came to 160 nM. To `CC(C)(Oc1ccc(CCCC2=NN(Cc3ccc(C(C)(C)C)cc3)C(=O)C2(C)C)cc1)C(=O)NCc1ccccn1` [Example 4, 2-(4-(3-(1-(4-(tert-butyl)benzyl)-4,4-dimethyl-5-oxo-4,5-dihydro-1H-pyrazol-3-yl)propyl)phenoxy)-2-methyl-N-(pyridin-2-ylmethyl)propanamide] belongs 240 nM; to `CC(C)(Oc1ccc(CCCC2=NN(Cc3ccc(C(C)(C)C)cc3)C(=O)C2(C)C)cc1)C(=O)NCc1ccncc1` [Example 5, 2-(4-(3-(1-(4-(tert-butyl)benzyl)-4,4-dimethyl-5-oxo-4,5-dihydro-1H-pyrazol-3-yl)propyl)phenoxy)-2-methyl-N-(pyridin-4-ylmethyl)propanamide], 280 nM. To `CC(C)(Oc1ccc(CCCC2=NN(Cc3ccc(C(C)(C)C)cc3)C(=O)C2(C)C)cc1)C(=O)NCC1CCCCC1` [Example 6, 2-(4-(3-(1-(4-(tert-butyl)benzyl)-4,4-dimethyl-5-oxo-4,5-dihydro-1H-pyrazol-3-yl)propyl)phenoxy)-N-(cyclohexylmethyl)-2-methylpropanamide] belongs 420 nM.

As for `CC(C)(Oc1ccc(CCCC2=NN(Cc3cccc(C(F)(F)F)c3)C(=O)C2(C)C)cc1)C(=O)O` [Example 7, 2-(4-(3-(4,4-dimethyl-5-oxo-1-(3-(trifluoromethyl)benzyl)-4,5-dihydro-1H-pyrazol-3-yl)propyl)phenoxy)-2-methylpropanoic acid], the IC50 came to 900 nM. Under `CC(C)(Oc1ccc(CCCC2=NN(Cc3ccc(C(F)(F)F)cc3)C(=O)C2(C)C)cc1)C(=O)O` [Example 8, 2-(4-(3-(4,4-dimethyl-5-oxo-1-(4-(trifluoromethyl)benzyl)-4,5-dihydro-1H-pyrazol-3-yl)propyl)phenoxy)-2-methylpropanoic acid] stands 62 nM; under `CC(C)(Oc1ccc(CCCC2=NN(CCc3ccccc3)C(=O)C2(C)C)cc1)C(=O)O` [Example 9, 2-(4-(3-(4,4-dimethyl-5-oxo-1-phenethyl-4,5-dihydro-H-pyrazol-3-yl)propyl)phenoxy)-2-methylpropanoic acid], 1000 nM; under `CC(C)(Oc1ccc(CCCC2=NN(c3ccccc3)C(=O)C2(C)C)cc1)C(=O)O` [Example 10, 2-(4-(3-(4,4-dimethyl-5-oxo-1-phenyl-4,5-dihydro-1H-pyrazol-3-yl)propyl)phenoxy)-2-methylpropanoic acid], 410 nM. `CC(C)(Oc1ccc(CCCC2=NN(c3ccc(C(C)(C)C)cc3)C(=O)C2(C)C)cc1)C(=O)O` [Example 11, 2-(4-(3-(1-(4-(tert-butyl)phenyl)-4,4-dimethyl-5-oxo-4,5-dihydro-1H-pyrazol-3-yl)propyl)phenoxy)-2-methylpropanoic acid]: the IC50 was determined as 8.1 nM. With `CC(C)c1ccc(CN2N=C(CCCc3ccc(OC(C)(C)C(=O)O)cc3)C(C)(C)C2=O)cc1` [Example 12, 2-(4-(3-(1-(4-isopropylbenzyl)-4,4-dimethyl-5-oxo-4,5-dihydro-1H-pyrazol-3-yl)propyl)phenoxy)-2-methylpropanoic acid], the half-inhibitory concentration (IC50) is 22 nM. To `CC(C)(Oc1ccc(CCCC2=NN(Cc3ccc(Br)cc3)C(=O)C2(C)C)cc1)C(=O)O` [Example 13, 2-(4-(3-(1-(4-bromobenzyl)-4,4-dimethyl-5-oxo-4,5-dihydro-1H-pyrazol-3-yl)propyl)phenoxy)-2-methylpropanoic acid] belongs 360 nM; to `CC(C)(Oc1ccc(CCCC2=NN(Cc3ccc(-c4ccccc4)cc3)C(=O)C2(C)C)cc1)C(=O)O` [Example 14, 2-(4-(3-(1-([1,1′-biphenyl]-4-ylmethyl)-4,4-dimethyl-5-oxo-4,5-dihydro-1H-pyrazol-3-yl)propyl)phenoxy)-2-methylpropanoic acid], 260 nM; to `CC(C)(Oc1ccc(CCCC2=NN(Cc3ccc(C4=CCCCC4)cc3)C(=O)C2(C)C)cc1)C(=O)O` [Example 15, 2-(4-(3-(4,4-dimethyl-5-oxo-1-((2′,3′,4′,5′-tetrahydro-[1,1′-biphenyl]-4-yl)methyl)-4,5-dihydro-1H-pyrazol-3-yl)propyl)phenoxy)-2-methylpropanoic acid], 130 nM. To `CC(C)(Oc1ccc(CCCC2=NN(Cc3ccc(C4CC4)cc3)C(=O)C2(C)C)cc1)C(=O)O` [Example 16, 2-(4-(3-(1-(4-cyclopropylbenzyl)-4,4-dimethyl-5-oxo-4,5-dihydro-1H-pyrazol-3-yl)propyl)phenoxy)-2-methylpropanoic acid] belongs 140 nM; to `CC(C)(Oc1ccc(CCCC2=NN(Cc3ccc(C4CCCCC4)cc3)C(=O)C2(C)C)cc1)C(=O)O` [Example 17, 2-(4-(3-(1-(4-cyclohexylbenzyl)-4,4-dimethyl-5-oxo-4,5-dihydro-1H-pyrazol-3-yl)propyl)phenoxy)-2-methylpropanoic acid], 140 nM. In the case of `CC(C)(Oc1ccc(CCCC2=NN(Cc3ccc(C(F)(F)F)c(F)c3)C(=O)C2(C)C)cc1)C(=O)O` [Example 18, 2-(4-(3-(1-(3-fluoro-4-(trifluoromethyl)benzyl)-4,4-dimethyl-5-oxo-4,5-dihydro-1H-pyrazol-3-yl)propyl)phenoxy)-2-methylpropanoic acid], the IC50 amounted to 120 nM. To `CC(C)(Oc1ccc(CCCC2=NN(c3ccc(C(F)(F)F)cc3)C(=O)C2(C)C)cc1)C(=O)O` [Example 19, 2-(4-(3-(4,4-dimethyl-5-oxo-1-(4-(trifluoromethyl)phenyl)-4,5-dihydro-1H-pyrazol-3-yl)propyl)phenoxy)-2-methylpropanoic acid] belongs 3.8 nM.

With `CC(C)(Oc1ccc(CCCC2=NN(c3cccc(C(F)(F)F)c3)C(=O)C2(C)C)cc1)C(=O)O` [Example 20, 2-(4-(3-(4,4-dimethyl-5-oxo-1-(3-(trifluoromethyl)phenyl)-4,5-dihydro-1H-pyrazol-3-yl)propyl)phenoxy)-2-methylpropanoic acid], the IC50 was determined as 19 nM.

On to `CC(C)(Oc1ccc(CCCC2=NN(c3ccc(C(F)(F)F)cn3)C(=O)C2(C)C)cc1)C(=O)O` [Example 21, 2-(4-(3-(4,4-dimethyl-5-oxo-1-(5-(trifluoromethyl)pyridin-2-yl)-4,5-dihydro-1H-pyrazol-3-yl)propyl)phenoxy)-2-methylpropanoic acid], for which the half-maximal inhibitory concentration (IC50) was 35 nM.
